Assays:
[1] = test system: CLEC4F+ Kupffer cells; experiment: Liver histology, anti-CLEC4F staining, depletion efficacy (Example 3); assay type: in vivo, Balb/C mice; settings: for Kupffer cell depletion (CLEC4F+ staining): clodronate IV 50 or 17 mpk, anti-CD115 IP 12 mpk 1 or 4 doses, pexidartinib oral gavage 100 mpk 4 doses, FIG. 5A
Experimental: (§1) Balb/C mice were treated with the immune cell depletion agents clodronate, anti-CD115 antibody (as described in Example 1), or pexidartinib. Clodronate was provided by IV administration at 50 mpk (1.25 mg) or 17 mpk (425 μg), anti-CD115 antibody was provided by IP administration at 12 mpk (300 μg) 1 dose vs 4 doses. Anti-CD115 antibody was as described in Example 1. Pexidartinib was provided by oral gavage administration at 100 mpk (2.5 mg) 4 doses. A no-treatment mice group was used as a control. Each group contained 5 male BALB/c mice.
(§2) After the treatment, mice were euthanized and the liver samples were harvested for histology. Liver samples were stained with either anti-CLEC4F or anti-CD68 mouse antibody. Individual scores of the treatment groups were normalized by the no-treatment group to calculate depletion efficacy.
(§3) Pexidartinib was mixed with mice chow at 400 mg Pex/kg chow. Liver histology was taken after mice were fed with Pex-chow for 7 or 21 days.

[2] = test system: CD68+ macrophages; experiment: Liver histology, anti-CD68 staining, depletion efficacy (Example 3); assay type: in vivo, Balb/C mice; settings: for CD68+ macrophage depletion: clodronate IV 50 or 17 mpk, anti-CD115 IP 12 mpk 1 or 4 doses, pexidartinib oral gavage 100 mpk 4 doses, FIG. 5B
Experimental: as §1, §2, §3

[3] = test system: hFIX; experiment: hFIX levels in mouse plasma by ELISA after pexidartinib chow and DNA-LNP-5 (Example 4); assay type: in vivo; settings: DNA-LNP-5 10 μg per mouse; 1-4 weeks after dosing; Pex chow 7 or 21 days before dosing or regular chow; FIG. 7
Experimental: Pexidartinib was mixed with mice chow at 400 mg Pex/kg chow. In group 2 and group 3, mice chow was replaced with Pex chow at 21 days and 7 days before DNA-LNP-5 dosing.
Mice in group 1 were fed with regular chow throughout the study and served as controls. Mice were dosed with DNA-LNP-5 (10 μg per mouse). LNP-5 (GenVoy™ LNP) was obtained from Precision NanoSystems Inc.) and contained: ionizable lipid at 50%; DSPC at 10%; cholesterol 37.5%; and stabilizer (PEG-Lipid) at 2.5% (see Roces et al., Pharmaceutics, 2020 12, 1095.) DNA was as described in Example 1. hFIX levels in mouse plasma were quantified using ELISA 1-4 weeks after dosing.

[4] = test system: INF-γ and/or IL-6; experiment: Plasma pro-inflammatory cytokines by MSD 6 hours post-dose (Example 2); assay type: in vivo, mice (Balb/c); settings: 6-hour post-dose plasma; SPK-LNP1 50 μg; FIGS. 3A and 3B
Experimental: The effects of immune cell depletion on cytokine release and on transgene expression were studied using an anti-CD115 antibody in combination with clodronate, which is a toxic agent encapsulated in liposomes to induce monocyte/macrophage apoptosis.
FIX transgene DNA plasmid (50 μg), formulated in lipid nanoparticle (LNP) delivery vehicles (SPK-LNP1), was dosed in mice (n=5; Balb/c; Jackson Laboratory) by intravenous administration alone, or in combination with anti-CD115 antibody and/or clodronate (purchased from Liposoma), as outlined in Table 3. SPK-LNP-1 had the following composition: C12-200 lipid at 35%; DOPE at 16%; cholesterol at 46.5%; and C14-PEG2000 (Avanti® Polar Lipids) at 2.5%. DNA and anti-CD115 antibody were as described in Example 1.
6-hour post-dose plasma samples were analyzed for a panel of pro-inflammatory cytokines using MSD: IL-6, IFN-γ, TNF-α and IL-1β.

Structure (SMILES) | Kupffer cell depletion (CLEC4F+ staining) [1] | depletion of CLEC4F+ Kupffer cells ([1]; mixed with mice chow at 400 mg Pex/kg chow, fed 7 or 21 days, FIG. 6B) | CD68+ macrophage depletion [2] | depletion of CD68+ macrophages ([2]; mixed with mice chow at 400 mg Pex/kg chow, fed 7 or 21 days, FIG. 6A) | hFIX levels in mouse plasma [3] | cytokine (INF-γ and/or IL-6) levels following DNA-LNP administration [4]
FC(F)(F)c1ccc(CNc2ccc(Cc3c[nH]c4ncc(Cl)cc34)cn2)cn1 [Pexidartinib, pexidartinib] | small impact | significant depletion | no impact | significant depletion | a few mice in Pex-treated groups showed detectable expression | –
O=P(O)(O)C(Cl)(Cl)P(=O)(O)O [clodronate] | significant effect | – | significant effect | – | – | moderately reduced

From patent US20240074986A1, “Methods of Enhancing Non-Viral Gene Therapy” (Spark Therapeutics, Inc., priority 2020, published 2024)
